Columns and labels:
[1] = test system: TRZAWR (Wheat, Winter, cv Riband); assay: Preemergence herbicidal evaluation; format: in vivo, Triticum aestivum; settings: rated 4-5 weeks after treatment, rating scale 0-9
How it was run: (§1)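 Scores (0–9) reflect visual comparison with control plants for stand, vigor, malformation, size and chlorosis. Compound was applied to the soil after sowing, before emergence, as an aqueous acetone spray (about 0.0156–0.500 kg/ha), and cups were kept in a greenhouse for 4–5 weeks.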

[2] = test system: ECHORC (Watergrass (Calif.)); assay: Preemergence weed control under flooded paddy conditions; format: in vivo, Echinochloa oryzoides; settings: rated 3-4 weeks after treatment
How it was run: (§2)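 Silt loam, seeds in top 0.5 cm; flood held 1.5-3 cm; test cpd as acetone/water 50/50 into flood water, ~0.0313-0.500 kg/ha a.i.; greenhouse 3-4 wk; visual 0-9 score vs control.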

ABUTH (Velvetleaf) = assay: Preemergence herbicidal evaluation; format: in vivo, Abutilon theophrasti; settings: rated 4-5 weeks after treatment, rating scale 0-9
How it was run: as §1

CYPIR (Rice Flatsedge) = assay: Preemergence weed control under flooded paddy conditions; format: in vivo, Cyperus iria; settings: rated 3-4 weeks after treatment
How it was run: as §2

[3] = test system: SAGPY (Arrowhead (Pygmaea)); assay: as above; format: in vivo, Sagittaria pygmaea; settings: rated 3-4 weeks after treatment
How it was run: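 Flooded-pot preemergence screen with silt loam and seeds in the upper 0.5 cm. Dose about 0.0313 to 0.500 kg/ha, delivered into flood water; visual 0-9 score after 3 to 4 weeks.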

COc1cc(CN2C(=O)CSC2=Nc2cc(-n3c(=O)cc(C(F)(F)F)n(C)c3=O)c(F)cc2Cl)cc(OC)c1OC [Compound 140, 3-{4-Chloro-2-fluoro-5-{[3-(3,4,5-trimethoxybenzyl)-4-oxo-2-thiazolidinylidene]amino}phenyl}-1-methyl-6-(trifluoromethyl)-2,4(1H,3H)-pyrimidinedione]
2.0: herbicidal effect rating, SAGPY ([3]; 0.0313 kg/ha)
5.0: herbicidal effect rating, ECHORC ([2]; 0.0313 kg/ha) | herbicidal effect rating, ECHORC ([2]; 0.0625 kg/ha)
4.0: herbicidal effect rating, CYPIR (CYPIR (Rice Flatsedge); 0.0313 kg/ha) | herbicidal effect rating, SAGPY ([3]; 0.1250 kg/ha) | herbicidal effect rating, SAGPY ([3]; 0.2500 kg/ha)
7.0: herbicidal effect rating, ECHORC ([2]; 0.1250 kg/ha) | herbicidal effect rating, ECHORC ([2]; 0.2500 kg/ha) | Preemergence herbicidal rating ABUTH (ABUTH (Velvetleaf); rate 0.2500 kg/ha) | herbicidal effect rating, CYPIR (CYPIR (Rice Flatsedge); 0.0625 kg/ha) | herbicidal effect rating, CYPIR (CYPIR (Rice Flatsedge); 0.2500 kg/ha)
0.0: Preemergence herbicidal rating TRZAWR ([1]; rate 0.0625 kg/ha) | Preemergence herbicidal rating TRZAWR ([1]; rate 0.1250 kg/ha) | Preemergence herbicidal rating TRZAWR ([1]; rate 0.2500 kg/ha) | Preemergence herbicidal rating ABUTH (ABUTH (Velvetleaf); rate 0.0625 kg/ha)
9.0: herbicidal effect rating, CYPIR (CYPIR (Rice Flatsedge); 0.1250 kg/ha)
3.0: Preemergence herbicidal rating ABUTH (ABUTH (Velvetleaf); rate 0.1250 kg/ha) | herbicidal effect rating, SAGPY ([3]; 0.0625 kg/ha)

Cn1c(C(F)(F)F)cc(=O)n(-c2cc(N=C3SCC(=O)N3Cc3ccc(Cl)c(Cl)c3)c(Cl)cc2F)c1=O [Compound 144, 3-{4-Chloro-5-{[3-(3,4-dichlorobenzyl)-4-oxo-2-thiazolidinylidene]amino}-2-fluorophenyl}-1-methyl-6-(trifluoromethyl)-2,4(1H,3H)-pyrimidinedione]
3.0: herbicidal effect rating, ECHORC ([2]; 0.2500 kg/ha) | herbicidal effect rating, CYPIR (CYPIR (Rice Flatsedge); 0.0313 kg/ha) | herbicidal effect rating, CYPIR (CYPIR (Rice Flatsedge); 0.0625 kg/ha)
9.0: Preemergence herbicidal rating ABUTH (ABUTH (Velvetleaf); rate 0.1250 kg/ha) | Preemergence herbicidal rating ABUTH (ABUTH (Velvetleaf); rate 0.2500 kg/ha) | herbicidal effect rating, CYPIR (CYPIR (Rice Flatsedge); 0.1250 kg/ha) | herbicidal effect rating, CYPIR (CYPIR (Rice Flatsedge); 0.2500 kg/ha)
2.0: herbicidal effect rating, SAGPY ([3]; 0.1250 kg/ha)
1.0: herbicidal effect rating, ECHORC ([2]; 0.1250 kg/ha)
4.0: herbicidal effect rating, SAGPY ([3]; 0.2500 kg/ha)
0.0: Preemergence herbicidal rating TRZAWR ([1]; rate 0.0156 kg/ha) | Preemergence herbicidal rating TRZAWR ([1]; rate 0.0313 kg/ha) | Preemergence herbicidal rating TRZAWR ([1]; rate 0.0625 kg/ha) | Preemergence herbicidal rating TRZAWR ([1]; rate 0.1250 kg/ha) | Preemergence herbicidal rating TRZAWR ([1]; rate 0.2500 kg/ha) | herbicidal effect rating, ECHORC ([2]; 0.0313 kg/ha) | herbicidal effect rating, ECHORC ([2]; 0.0625 kg/ha) | Preemergence herbicidal rating ABUTH (ABUTH (Velvetleaf); rate 0.0156 kg/ha) | Preemergence herbicidal rating ABUTH (ABUTH (Velvetleaf); rate 0.0313 kg/ha) | Preemergence herbicidal rating ABUTH (ABUTH (Velvetleaf); rate 0.0625 kg/ha) | herbicidal effect rating, SAGPY ([3]; 0.0313 kg/ha) | herbicidal effect rating, SAGPY ([3]; 0.0625 kg/ha)

Cc1cc(C)cc(CN2C(=O)CSC2=Nc2cc(-n3c(=O)cc(C(F)(F)F)n(C)c3=O)c(F)cc2Cl)c1 [Compound 146, 3-{4-Chloro-5-{[3-(3,5-dimethylbenzyl)-4-oxo-2-thiazolidinylidene]amino}-2-fluorophenyl}-1-methyl-6-(trifluoromethyl)-2,4(1H,3H)-pyrimidinedione]
7.0: herbicidal effect rating, CYPIR (CYPIR (Rice Flatsedge); 0.2500 kg/ha)
6.0: herbicidal effect rating, CYPIR (CYPIR (Rice Flatsedge); 0.0625 kg/ha) | herbicidal effect rating, CYPIR (CYPIR (Rice Flatsedge); 0.1250 kg/ha)
9.0: herbicidal effect rating, ECHORC ([2]; 0.0313 kg/ha) | herbicidal effect rating, ECHORC ([2]; 0.0625 kg/ha) | herbicidal effect rating, ECHORC ([2]; 0.1250 kg/ha) | herbicidal effect rating, ECHORC ([2]; 0.2500 kg/ha) | Preemergence herbicidal rating ABUTH (ABUTH (Velvetleaf); rate 0.1250 kg/ha) | Preemergence herbicidal rating ABUTH (ABUTH (Velvetleaf); rate 0.2500 kg/ha)
4.0: herbicidal effect rating, CYPIR (CYPIR (Rice Flatsedge); 0.0313 kg/ha) | herbicidal effect rating, SAGPY ([3]; 0.2500 kg/ha)
3.0: herbicidal effect rating, SAGPY ([3]; 0.1250 kg/ha)
0.0: Preemergence herbicidal rating TRZAWR ([1]; rate 0.0156 kg/ha) | Preemergence herbicidal rating TRZAWR ([1]; rate 0.0313 kg/ha) | Preemergence herbicidal rating TRZAWR ([1]; rate 0.0625 kg/ha) | Preemergence herbicidal rating TRZAWR ([1]; rate 0.1250 kg/ha) | Preemergence herbicidal rating ABUTH (ABUTH (Velvetleaf); rate 0.0156 kg/ha) | herbicidal effect rating, SAGPY ([3]; 0.0313 kg/ha) | herbicidal effect rating, SAGPY ([3]; 0.0625 kg/ha)
1.0: Preemergence herbicidal rating TRZAWR ([1]; rate 0.2500 kg/ha) | Preemergence herbicidal rating ABUTH (ABUTH (Velvetleaf); rate 0.0625 kg/ha)

Cn1c(C(F)(F)F)cc(=O)n(-c2cc(N=C3SCC(=O)N3Cc3cc(Cl)cc(Cl)c3)c(Cl)cc2F)c1=O [Compound 150, 3-{4-Chloro-5-{[3-(3,5-dichlorobenzyl)-4-oxo-2-thiazolidinylidene]amino}-2-fluorophenyl}-1-methyl-6-(trifluoromethyl)-2,4(1H,3H)-pyrimidinedione]
1.0: Preemergence herbicidal rating TRZAWR ([1]; rate 0.1250 kg/ha) | Preemergence herbicidal rating TRZAWR ([1]; rate 0.2500 kg/ha)
0.0: Preemergence herbicidal rating TRZAWR ([1]; rate 0.0313 kg/ha) | Preemergence herbicidal rating TRZAWR ([1]; rate 0.0625 kg/ha) | Preemergence herbicidal rating ABUTH (ABUTH (Velvetleaf); rate 0.0313 kg/ha) | herbicidal effect rating, SAGPY ([3]; 0.0313 kg/ha)
7.0: herbicidal effect rating, ECHORC ([2]; 0.0625 kg/ha)
9.0: herbicidal effect rating, ECHORC ([2]; 0.1250 kg/ha) | herbicidal effect rating, ECHORC ([2]; 0.2500 kg/ha) | Preemergence herbicidal rating ABUTH (ABUTH (Velvetleaf); rate 0.1250 kg/ha) | Preemergence herbicidal rating ABUTH (ABUTH (Velvetleaf); rate 0.2500 kg/ha) | herbicidal effect rating, CYPIR (CYPIR (Rice Flatsedge); 0.0313 kg/ha) | herbicidal effect rating, CYPIR (CYPIR (Rice Flatsedge); 0.0625 kg/ha) | herbicidal effect rating, CYPIR (CYPIR (Rice Flatsedge); 0.1250 kg/ha) | herbicidal effect rating, CYPIR (CYPIR (Rice Flatsedge); 0.2500 kg/ha)
4.0: Preemergence herbicidal rating ABUTH (ABUTH (Velvetleaf); rate 0.0625 kg/ha)
2.0: herbicidal effect rating, SAGPY ([3]; 0.0625 kg/ha) | herbicidal effect rating, SAGPY ([3]; 0.1250 kg/ha) | herbicidal effect rating, SAGPY ([3]; 0.2500 kg/ha)
6.0: herbicidal effect rating, ECHORC ([2]; 0.0313 kg/ha)

Source: US20020137929A1, “1 - (3-heterocyclylphenyl) isothiourea, -isourea, -guanidine and -amidine herbicidal agents” (Intellectual Property Department, BASF Aktiengesellschaft, priority 1998, published 2002)
